In patent US20260201008A1, “SECRETIN-DERIVED GLP1R SELECTIVE AGONISTS” (GUBRA A/S, priority 2023, published 2026):
Read-outs that look alike come from different tables or passages of the source. Numbered stars: 1 amine (or outer) side, 2 acyl side, 3 side chain; on linkers, the order of the positions; unused ones are H or OH. Square brackets hold non-standard residues; d marks the D form. Side chains are listed from the residue outwards. Peptide text beside a SMILES is read from it. * marks the point of attachment. C20 diacid = O=C(O)CCCCCCCCCCCCCCCCCCC(=O)*; γGlu = O=C(O)[C@H](CCC(=O)[*:2])N[*:1]; AEEA = NCCOCCOCC(=O)O; Aib = CC(C)(N)C(=O)O

Columns and labels:
[1] = Turbidity of crude library peptides (absorbance at 600 nm); type: physicochemical; settings: Physical stability of peptides
Outline: (§1)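 Fibril formation is scored as average ThT fluorescence from duplicate samples monitored for 72 h at 40° C with shaking stress. Turbidity is the absorbance at 600 nm taken before heating. Peptide concentration was 267 μM at pH 4.0 or pH 7.0.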

[2] = Fibril formation of crude library peptides (Thioflavin T); type: physicochemical; design: key: average ThT fluorescence emission at 480 nm (ex 450 nm), raw units; settings: Physical stability of peptides
Outline: as §1

GLP1R = GLP1R (Homo sapiens, UniProt P43220); assay: hGLP1R potency, cAMP accumulation in CHO-K1 cells stably overexpressing hGLP1R; type: cell-based; design: host or cells: CHO-K1; settings: for Selectivity: SCTR EC50/GLP1R EC50 ratio; for EC50: cAMP accumulation; for SCTR EC50/GLP1R EC50 ratio: cAMP accumulation in CHO-K1 cells
Sequence of GLP1R (P43220 24-463): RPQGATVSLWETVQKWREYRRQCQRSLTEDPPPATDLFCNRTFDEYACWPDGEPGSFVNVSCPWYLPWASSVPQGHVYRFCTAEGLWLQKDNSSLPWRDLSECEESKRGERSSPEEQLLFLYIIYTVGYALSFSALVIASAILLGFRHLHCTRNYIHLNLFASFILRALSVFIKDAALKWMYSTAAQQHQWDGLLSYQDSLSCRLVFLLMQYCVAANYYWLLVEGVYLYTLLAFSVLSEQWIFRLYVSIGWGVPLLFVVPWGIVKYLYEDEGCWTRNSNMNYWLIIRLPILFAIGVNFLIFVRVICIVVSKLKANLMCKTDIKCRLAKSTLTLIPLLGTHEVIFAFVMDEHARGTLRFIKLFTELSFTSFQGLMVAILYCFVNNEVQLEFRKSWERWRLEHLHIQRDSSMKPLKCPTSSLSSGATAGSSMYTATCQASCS
Outline: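 TR-FRET cAMP read-out, one hour after reagent addition, following 30 min compound exposure at RT in DPBS/0.05% casein/0.5 mM IBMX. Crude peptides: 5 points, 10-fold steps, n=1. Purified peptides: 11 points, 3-fold steps, n=2. EC50 fitted with a variable-slope sigmoid.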

SCTR = SCTR (Homo sapiens, UniProt P47872); assay: hSCTR potency, cAMP accumulation in CHO-K1 cells stably overexpressing hSCTR; type: cell-based; design: alternatively Euroscreen ES-712-AF; FAST-0161L; host or cells: CHO-K1; settings: cAMP accumulation
Sequence of SCTR (P47872 23-440): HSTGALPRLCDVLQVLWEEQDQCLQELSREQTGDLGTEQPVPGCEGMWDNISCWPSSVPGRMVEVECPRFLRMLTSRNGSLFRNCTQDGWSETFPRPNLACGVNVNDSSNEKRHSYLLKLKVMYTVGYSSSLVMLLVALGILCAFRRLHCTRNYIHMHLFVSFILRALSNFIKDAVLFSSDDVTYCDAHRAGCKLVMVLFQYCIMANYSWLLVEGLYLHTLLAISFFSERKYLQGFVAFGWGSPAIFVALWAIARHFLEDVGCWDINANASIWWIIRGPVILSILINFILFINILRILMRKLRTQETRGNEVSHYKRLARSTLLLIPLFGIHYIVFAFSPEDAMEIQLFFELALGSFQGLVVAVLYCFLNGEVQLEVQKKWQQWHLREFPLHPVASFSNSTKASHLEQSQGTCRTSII
Outline: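 CHO-K1/hSCTR cells; DPBS + 0.05% casein + 0.5 mM IBMX; 30 min RT stimulation; cAMP by TR-FRET read at 1 h. Crude peptides: 5-point 10-fold dilutions, n=1. Purified: 11-point 3-fold dilutions, n=2. EC50 via variable-slope fit.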

[3] = CHO-K1 cells overexpressing hGLP1R, read-out: pEC50 hGLPR1 (converted)
[4] = CHO-K1 cells overexpressing hSCTR, read-out: pEC50 hSCTR (converted)
[5] = CHO-K1 cells overexpressing hGLP1R, read-out: hGLP1R pEC50 (converted)
[6] = selectivity for hGLP1R over hSCTR
[7] = CHO-K1 cells overexpressing hSCTR, read-out: hSCTR pEC50 (converted)

Turbidity (pH 7) [1]	Fibril formation [2]	Selectivity (GLP1R)	EC50 (GLP1R; [3])	EC50 (SCTR; [4])	EC50 (GLP1R; [5])	SCTR EC50/GLP1R EC50 ratio (GLP1R; [6])	EC50 (SCTR; [7])	EC50 (GLP1R; CHO-K1 cells stably overexpressing hGLP1R, read-out: hGLP1R potency (pEC50) (converted))	SCTR EC50/GLP1R EC50 ratio (GLP1R; selectivity ratio, hSCTR vs hGLP1R)	EC50 (SCTR; CHO-K1 cells stably overexpressing hSCTR, read-out: hSCTR potency (pEC50) (converted))	Compound
0.08	13795	4851	0.0158 nM	79.4 nM	–	–	–	–	–	–	CC(C)C[C@H](NC(=O)[C@H](CCC(=O)O)NC(=O)[C@H](CCCCNC(=O)COCCOCCNC(=O)COCCOCCNC(=O)CC[C@H](NC(=O)CCCCCCCCCCCCCCCCCCC(=O)O)C(=O)O)NC(=O)[C@H](CC(C)C)NC(=O)[C@H](CCCNC(=N)N)NC(=O)[C@H](CO)NC(=O)[C@@H](NC(=O)[C@H](CC(=O)O)NC(=O)[C@H](CO)NC(=O)[C@@H](NC(=O)[C@H](Cc1ccccc1)NC(=O)[C@@H](NC(=O)CNC(=O)[C@H](CCC(=O)O)NC(=O)C(C)(C)NC(=O)[C@@H](N)Cc1c[nH]cn1)[C@@H](C)O)[C@@H](C)O)C(C)C)C(=O)N[C@@H](C)C(=O)N[C@@H](C)C(=O)N[C@@H](CCC(N)=O)C(=O)N[C@@H](CCC(N)=O)C(=O)N[C@@H](CCCNC(=N)N)C(=O)N[C@@H](Cc1ccccc1)C(=O)N[C@@H](CC(C)C)C(=O)N[C@@H](CCC(=O)O)C(=O)N[C@@H](Cc1c[nH]cn1)C(=O)N[C@@H](CC(C)C)C(=O)N[C@H](C(N)=O)C(C)C [compound 3] (H-H[Aib]EGTFTSDVSRLK([AEEA-AEEA-γGlu-C20 diacid])ELAAQQRFLEHLV-NH2)
0.09	19223	–	–	–	0.126 nM	12682	1580 nM	–	–	–	CC(C)C[C@H](NC(=O)[C@H](Cc1ccccc1)NC(=O)[C@H](CCCNC(=N)N)NC(=O)[C@H](CCC(N)=O)NC(=O)C(C)(C)NC(=O)[C@H](C)NC(=O)[C@H](C)NC(=O)[C@@H](NC(=O)[C@H](CCC(=O)O)NC(=O)[C@H](CCCCNC(=O)COCCOCCNC(=O)COCCOCCNC(=O)CC[C@H](NC(=O)CCCCCCCCCCCCCCCCCCC(=O)O)C(=O)O)NC(=O)[C@H](CC(C)C)NC(=O)[C@H](CCCNC(=N)N)NC(=O)[C@H](CO)NC(=O)[C@@H](NC(=O)[C@H](CC(=O)O)NC(=O)[C@H](CO)NC(=O)[C@@H](NC(=O)[C@H](Cc1ccccc1)NC(=O)[C@@H](NC(=O)CNC(=O)[C@H](CCC(=O)O)NC(=O)C(C)(C)NC(=O)[C@@H](N)Cc1c[nH]cn1)[C@@H](C)O)[C@@H](C)O)C(C)C)[C@@H](C)O)C(=O)N[C@@H](CCC(=O)O)C(=O)N[C@@H](Cc1c[nH]cn1)C(=O)N[C@@H](CC(C)C)C(=O)N[C@H](C(N)=O)C(C)C [compound 85] (H-H[Aib]EGTFTSDVSRLK([AEEA-AEEA-γGlu-C20 diacid])ETAA[Aib]QRFLEHLV-NH2)
0.09	259534	30095	0.0501 nM	1580 nM	–	–	–	–	–	–	CC(C)C[C@H](NC(=O)[C@H](Cc1ccccc1)NC(=O)[C@H](CCCNC(=N)N)NC(=O)[C@H](CCC(N)=O)NC(=O)[C@H](CO)NC(=O)[C@H](C)NC(=O)[C@H](C)NC(=O)[C@H](Cc1ccccc1)NC(=O)[C@H](CCC(=O)O)NC(=O)[C@H](CCCCNC(=O)COCCOCCNC(=O)COCCOCCNC(=O)CC[C@H](NC(=O)CCCCCCCCCCCCCCCCCCC(=O)O)C(=O)O)NC(=O)[C@H](CC(C)C)NC(=O)[C@H](CCC(=O)O)NC(=O)[C@H](CO)NC(=O)[C@@H](NC(=O)[C@H](CC(=O)O)NC(=O)[C@H](CO)NC(=O)[C@@H](NC(=O)[C@H](Cc1ccccc1)NC(=O)[C@@H](NC(=O)CNC(=O)[C@H](CCC(=O)O)NC(=O)C(C)(C)NC(=O)[C@@H](N)Cc1c[nH]cn1)[C@@H](C)O)[C@@H](C)O)C(C)C)C(=O)N[C@@H](CCC(=O)O)C(=O)N[C@@H](Cc1c[nH]cn1)C(=O)N[C@@H](CC(C)C)C(=O)N[C@H](C(N)=O)C(C)C [compound 8] (H-H[Aib]EGTFTSDVSELK([AEEA-AEEA-γGlu-C20 diacid])EFAASQRFLEHLV-NH2)
0.08	2836	–	–	–	0.0126 nM	13696	158 nM	–	–	–	CC(C)C[C@H](NC(=O)[C@H](Cc1ccccc1)NC(=O)[C@H](CCCNC(=N)N)NC(=O)[C@H](CCC(N)=O)NC(=O)[C@H](CC(C)C)NC(=O)C(C)(C)NC(=O)[C@H](C)NC(=O)[C@H](CCC(=O)O)NC(=O)[C@H](CCC(=O)O)NC(=O)[C@H](CCCCNC(=O)COCCOCCNC(=O)COCCOCCNC(=O)CC[C@H](NC(=O)CCCCCCCCCCCCCCCCCCC(=O)O)C(=O)O)NC(=O)[C@H](CC(C)C)NC(=O)[C@H](Cc1ccccc1)NC(=O)[C@H](CO)NC(=O)[C@@H](NC(=O)[C@H](CC(=O)O)NC(=O)[C@H](CO)NC(=O)[C@@H](NC(=O)[C@H](Cc1ccccc1)NC(=O)[C@@H](NC(=O)CNC(=O)[C@H](CCC(=O)O)NC(=O)C(C)(C)NC(=O)[C@@H](N)Cc1c[nH]cn1)[C@@H](C)O)[C@@H](C)O)C(C)C)C(=O)N[C@@H](CCC(=O)O)C(=O)N[C@@H](Cc1c[nH]cn1)C(=O)N[C@@H](CC(C)C)C(=O)N[C@H](C(N)=O)C(C)C [compound 173] (H-H[Aib]EGTFTSDVSFLK([AEEA-AEEA-γGlu-C20 diacid])EEA[Aib]LQRFLEHLV-NH2)
0.08	4198	–	–	–	–	–	–	0.00631 nM	7444	50.1 nM	CC(C)C[C@H](NC(=O)[C@H](Cc1ccc(O)cc1)NC(=O)[C@H](CO)NC(=O)[C@H](Cc1c[nH]c2ccccc12)NC(=O)[C@H](CC(=O)O)NC(=O)[C@H](CO)NC(=O)[C@@H](NC(=O)[C@H](Cc1ccccc1)NC(=O)[C@@H](NC(=O)CNC(=O)[C@H](CCC(=O)O)NC(=O)C(C)(C)NC(=O)[C@@H](N)Cc1c[nH]cn1)[C@@H](C)O)[C@@H](C)O)C(=O)N[C@@H](CCCCNC(=O)COCCOCCNC(=O)COCCOCCNC(=O)CC[C@H](NC(=O)CCCCCCCCCCCCCCCCCCC(=O)O)C(=O)O)C(=O)N[C@@H](CCC(=O)O)C(=O)N[C@@H](CCC(=O)O)C(=O)N[C@@H](C)C(=O)NC(C)(C)C(=O)N[C@@H](CC(C)C)C(=O)N[C@@H](CCC(N)=O)C(=O)N[C@@H](CCCNC(=N)N)C(=O)N[C@@H](Cc1ccccc1)C(=O)N[C@@H](CC(C)C)C(=O)N[C@@H](CCC(=O)O)C(=O)N[C@@H](Cc1c[nH]cn1)C(=O)N[C@@H](CC(C)C)C(=O)N[C@H](C(N)=O)C(C)C [compound 185] (H-H[Aib]EGTFTSDWSYLK([AEEA-AEEA-γGlu-C20 diacid])EEA[Aib]LQRFLEHLV-NH2)
0.08	221619	2998	0.0501 nM	158 nM	–	–	–	–	–	–	CC(C)C[C@H](NC(=O)[C@H](Cc1ccccc1)NC(=O)[C@H](CCCNC(=N)N)NC(=O)[C@H](CCC(N)=O)NC(=O)[C@H](CCC(N)=O)NC(=O)[C@H](C)NC(=O)[C@H](C)NC(=O)[C@H](Cc1ccccc1)NC(=O)[C@H](CCC(=O)O)NC(=O)[C@H](CCCCNC(=O)COCCOCCNC(=O)COCCOCCNC(=O)CC[C@H](NC(=O)CCCCCCCCCCCCCCCCCCC(=O)O)C(=O)O)NC(=O)[C@H](CC(C)C)NC(=O)[C@H](CCCNC(=N)N)NC(=O)[C@H](CO)NC(=O)[C@@H](NC(=O)[C@H](CC(=O)O)NC(=O)[C@H](CO)NC(=O)[C@@H](NC(=O)[C@H](Cc1ccccc1)NC(=O)[C@@H](NC(=O)CNC(=O)[C@H](CCC(=O)O)NC(=O)C(C)(C)NC(=O)[C@@H](N)Cc1c[nH]cn1)[C@@H](C)O)[C@@H](C)O)C(C)C)C(=O)N[C@@H](CCC(=O)O)C(=O)N[C@@H](Cc1c[nH]cn1)C(=O)N[C@@H](CC(C)C)C(=O)N[C@H](C(N)=O)C(C)C [compound 24] (H-H[Aib]EGTFTSDVSRLK([AEEA-AEEA-γGlu-C20 diacid])EFAAQQRFLEHLV-NH2)
